Measured values from PMC6006164, “Natural cyclopeptide RA-V inhibits the NF-κB signaling pathway by targeting TAK1” (Cell Death & Disease, 2018).

Columns and labels:
Assay type in all cases: cell-based
NF-κB signaling pathway = assay: NF-κB-dependent luciferase reporter (5×κB-luciferase/pTK-Renilla), TNF-α-induced, HeLa cells; conditions: RA-V 6 h, then 10 ng/mL TNF-α 2 h, three independent experiments
Procedure: Fig. 1 RA-V inhibits TNF-α- and LPS-induced activation of NF-κB. a Chemical structure of RA-V. b RA-V inhibited the NF-κB signaling pathway in a dose-dependent manner. HEK293T or HeLa cells were transfected with the 5 × κB-luciferase and pTK-Renilla reporters. Twenty-four hours after transfection, the cells were incubated with various concentrations of RA-V for 6 h, and then treated with 10 ng/mL TNF-α for 2 h before the luciferase activity assay and MTT assay. c RA-V reduced TNF-α-induced expression of NF-κB target genes. HEK293T or HeLa cells were treated with various concentrations of RA-V for 24 h and stimulated with 10 ng/mL TNF-α for 2 h. The expression of the NF-κB target genes, IL-8, MCP-1, and E-selectin was measured by quantitative RT-PCR and normalized to GADPH expression. d RA-V inhibited TNF-α-induced p65 phosphorylation, IκBα phosphorylation and IκBα degradation. HEK293T or HeLa cells were incubated with various concentrations of RA-V for 24 h and treated with 10 ng/mL TNF-α for 10 min. The cell lysates were prepared and subjected to western blot analysis with the indicated antibodies. e RA-V inhibited TNF-α-induced IL-8 production. […] The expression of IL-6 was measured. h RA-V inhibited LPS-induced p65 phosphorylation, IκBα phosphorylation. […] The protein expression was measured. i RA-V inhibited LPS-induced IL-6 production. […] The expression of IL-6 was measured. […]

TAK1–TRAF6 interaction = target: T1, TAK1–TRAF6 interaction (Homo sapiens, UniProt O43318); assay: Co-immunoprecipitation of TAK1 and TRAF6; conditions: HEK293T, Flag-TAK1 and HA-TRAF6; RA-V 800 nM 6 h
T1 construct: expressed in transfected cells; host or cells: HEK293T
T1 sequence (O43318 1-579 isoform O43318-2): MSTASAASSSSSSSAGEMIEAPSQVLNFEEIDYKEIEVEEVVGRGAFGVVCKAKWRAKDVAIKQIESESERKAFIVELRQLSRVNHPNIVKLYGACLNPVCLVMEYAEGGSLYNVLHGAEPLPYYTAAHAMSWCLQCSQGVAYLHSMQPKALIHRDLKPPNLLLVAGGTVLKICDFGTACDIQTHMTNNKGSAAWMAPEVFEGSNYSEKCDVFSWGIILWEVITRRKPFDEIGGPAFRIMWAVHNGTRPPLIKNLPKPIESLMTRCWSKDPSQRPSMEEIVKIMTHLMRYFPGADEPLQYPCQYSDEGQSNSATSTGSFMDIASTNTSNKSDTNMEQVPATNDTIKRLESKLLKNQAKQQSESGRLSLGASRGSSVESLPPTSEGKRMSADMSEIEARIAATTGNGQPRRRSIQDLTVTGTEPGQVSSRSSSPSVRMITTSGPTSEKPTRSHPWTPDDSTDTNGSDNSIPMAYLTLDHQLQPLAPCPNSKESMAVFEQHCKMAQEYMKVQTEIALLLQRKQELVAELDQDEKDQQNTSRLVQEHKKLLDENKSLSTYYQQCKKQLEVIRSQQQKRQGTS
Procedure: (§1) Fig. 4 RA-V blocks the interaction between TAK1 and TAB2. a RA-V blocked the exogenous TAK1–TAB2 interaction. HEK293T cells were transfected with Flag-TAK1 and HA-TAB2 for 24 h and then incubated with various concentrations of RA-V for 6 h. […] HEK293T cells were transfected with Flag-TAK1 and HA-TRAF6 or HA-TAB1 for 24 h and then incubated with RA-V (800 nM) for 6 h. The cell lysates were immunoprecipitated with HA antibody, and immunoblots were performed with the indicated antibodies. d RA-V blocked the endogenous TAK1–TAB2 interaction. HEK293T (left) or RAW264.7 (right) cells were incubated with 800 nM RA-V for 6 h and stimulated with 10 ng/mL TNF-α for 2 h or 1 μg/mL LPS for 3 h, respectively. The cell lysates were immunoprecipitated with TAK1 antibody or control IgG and then immunoblotted with the indicated antibodies. Each experiment was repeated at least three times
(§2) The cell lysates were prepared using radioimmunoprecipitation (RIPA) buffer containing 50 mM Tris-HCl pH 7.4, 150 mM NaCl, 1 mM ethylenediaminetetraacetic acid, 1% Triton X-100, 0.5% deoxycholate, and 0.1% sodium dodecyl sulfate, to which protease inhibitors (Roche) were added. The lysates were incubated with the indicated antibodies before adding 20 μL of Protein A/G agarose for 2 h. After four washes with the same buffer, the immunoprecipitates were boiled in 2 × SDS loading buffer.

RAW264.7 cells = assay: LPS-induced NF-κB activation in RAW264.7 cells; conditions: 1 μg/mL LPS 3 h, dose-dependent
Procedure: Fig. 1 RA-V inhibits TNF-α- and LPS-induced activation of NF-κB. a Chemical structure of RA-V. b RA-V inhibited the NF-κB signaling pathway in a dose-dependent manner. HEK293T or HeLa cells were transfected with the 5 × κB-luciferase and pTK-Renilla reporters. Twenty-four hours after transfection, the cells were incubated with various concentrations of RA-V for 6 h, and then treated with 10 ng/mL TNF-α for 2 h before the luciferase activity assay and MTT assay. c RA-V reduced TNF-α-induced expression of NF-κB target genes. HEK293T or HeLa cells were treated with various concentrations of RA-V for 24 h and stimulated with 10 ng/mL TNF-α for 2 h. The expression of the NF-κB target genes, IL-8, MCP-1, and E-selectin was measured by quantitative RT-PCR and normalized to GADPH expression. d RA-V inhibited TNF-α-induced p65 phosphorylation, IκBα phosphorylation and IκBα degradation. HEK293T or HeLa cells were incubated with various concentrations of RA-V for 24 h and treated with 10 ng/mL TNF-α for 10 min. The cell lysates were prepared and subjected to western blot analysis with the indicated antibodies. e RA-V inhibited TNF-α-induced IL-8 production. […] The expression of IL-6 was measured. h RA-V inhibited LPS-induced p65 phosphorylation, IκBα phosphorylation. […] The protein expression was measured. i RA-V inhibited LPS-induced IL-6 production. […] The expression of IL-6 was measured.

TAK1–TAB2 interaction [1] = target: T2, TAK1–TAB2 interaction (Homo sapiens, UniProt O43318); assay: Co-immunoprecipitation of TAK1 and TAB2; conditions: HEK293T, Flag-TAK1 and HA-TAB2; RA-V 6 h
T2 construct: expressed in transfected cells; host or cells: HEK293T
T2 sequence (O43318 1-579 isoform O43318-2): T1 sequence (O43318 1-579 isoform O43318-2)
Procedure: as §1, §2

TAK1–TAB2 interaction [2] = assay: Co-immunoprecipitation of TAK1 and TAB2; conditions: HEK293T or RAW264.7; 800 nM RA-V 6 h
Procedure: as §1, §2

RA-V
IC50 (NF-κB signaling pathway): 171 nM | TAK1–TRAF6 interaction (TAK1–TRAF6 interaction): does not disrupt | LPS-induced IL-6 production, IκBα phosphorylation and p65 phosphorylation (RAW264.7 cells): inhibited | interaction between exogenously expressed TAK1 and TAB2 (TAK1–TAB2 interaction [1]): dose-dependently blocked | endogenous TNF-α- or LPS-induced TAK1–TAB2 interaction (TAK1–TAB2 interaction [2]): inhibited the interaction
